This is an account of results in patent US20050175567A1, “Hair care compositions containing phenolic styling agents” (priority 2002, published 2005).

This assay in a line: Curl dropout of treated hair curls in high humidity chamber. Particulars: 1% by weight solution in water; curls soaked 1 hour, rinsed, dried 30 minutes; 90% RH, 30° C., fan agitation, 1 minute. How it is done: Three solutions were formulated each containing 1% by weight of either 2,5 dihydroxybenzoic acid, 3,4 dihydroxybenzoic acid or 3,5 dihydroxybenzoic acid. Hair curls were made up using perming rods and 30 cm length hair.
The curls were placed in the solution for 1 hour, rinsed thoroughly with distilled water and dried for 30 minutes. The hair was removed from the curling rod and the length of the curl measured.
The hair was hung in high humidity environmental chamber (90% RH, 30° C.) with fan agitation for 1 minute and measured again.

With `O=C(O)c1ccc(O)c(O)c1` [3,4 dihydroxybenzoic acid], the Curl dropout % is 29%.
With `O=C(O)c1cc(O)cc(O)c1` [3,5 dihydroxybenzoic acid], the Curl dropout % is recorded as 26%.
Consider `O=C(O)c1cc(O)ccc1O` [2,5 dihydroxybenzoic acid], for which the Curl dropout % was 17.1%.
